Results taken from patent US20200231614A1, “PSMA TARGETED RADIOHALOGENATED UREAS FOR CANCER RADIOTHERAPY” (THE JOHNS HOPKINS UNIVERSITY, priority 2015, published 2020).
Read-outs that look alike come from different tables or passages of the source.

Tested on: PSMA + PC-3 PiP and PSMA − PC-3 flu tumor xenografts

## O=C(O)CC[C@H](NC(=O)N[C@@H](CSCc1ccc([125I])cc1)C(=O)O)C(=O)O [[^125I] labeled DCIBC, (S)-2-(3-((R)-1-carboxy-2-(4-[^125I]iodobenzylthio)ethyl)ureido)-pentanedioic Acid]
1 H post-injection
  Biodistribution: Lrg Int.: 1.2 ± 0.1 % ID/g
  Biodistribution: PSMA + tumor: 8.0 ± 1.3 % ID/g
  Biodistribution: PSMA − tumor: 1.3 ± 0.2 % ID/g
  Biodistribution: Sm int.: 1.2 ± 0.3 % ID/g
  Biodistribution: blood: 5.8 ± 2.3 % ID/g
  Biodistribution: heart: 1.5 ± 0.2 % ID/g
  Biodistribution: kidney: 77 ± 17 % ID/g
  Biodistribution: liver: 20 ± 4 % ID/g
  Biodistribution: lung: 2.2 ± 0.4 % ID/g
  Biodistribution: muscle: 1.0 ± 0.8 % ID/g
  Biodistribution: spleen: 5.1 ± 2.2 % ID/g
2 H post-injection
  Biodistribution: Lrg Int.: 1.2 ± 0.5 % ID/g
  Biodistribution: PSMA + tumor: 5.6 ± 1.3 % ID/g
  Biodistribution: PSMA − tumor: 0.9 ± 0.1 % ID/g
  Biodistribution: Sm int.: 1.1 ± 0.2 % ID/g
  Biodistribution: blood: 4.9 ± 2.6 % ID/g
  Biodistribution: heart: 1.1 ± 0.2 % ID/g
  Biodistribution: kidney: 30 ± 8 % ID/g
  Biodistribution: liver: 17 ± 4 % ID/g
  Biodistribution: lung: 1.9 ± 0.5 % ID/g
  Biodistribution: muscle: 0.5 ± 0.2 % ID/g
  Biodistribution: spleen: 3.2 ± 0.6 % ID/g
5 H post-injection
  Biodistribution: Lrg Int.: 2.7 ± 1.9 % ID/g
  Biodistribution: PSMA + tumor: 5.5 ± 0.6 % ID/g
  Biodistribution: PSMA − tumor: 1.0 ± 0.3 % ID/g
  Biodistribution: Sm Int.: 1.7 ± 1.5 % ID/g
  Biodistribution: blood: 3.3 ± 1.1 % ID/g
  Biodistribution: heart: 0.9 ± 0.5 % ID/g
  Biodistribution: kidney: 18 ± 6 % ID/g
  Biodistribution: liver: 17 ± 1 % ID/g
  Biodistribution: lung: 1.0 ± 0.5 % ID/g
  Biodistribution: muscle: 0.4 ± 0.2 % ID/g
  Biodistribution: spleen: 3.9 ± 1.1 % ID/g
